Values joined by “and” are separate entries in the source; they are usually repeats but may differ in a detail not shown here. Identical values can stand only once. Like-named read-outs stand apart in the source and are kept apart here.
Tests used:
Type in all cases: in vivo
[1] = test system: Tetranychus urticae (spider mites - adult); test: insecticidal mortality test, contact, French bean leaf; conditions: for mortality at 100 ppm: Tetranychus urticae, 72 h, read-out: grading of mortality, Tua, 100 ppm, 3 days
Experimental: (§1) The activity of the Product was determined using a variety of insect pests. The Product was used in the form of liquid preparations containing 500, 250 or 100 parts per million (ppm) by weight of the Product. The preparations were made by dissolving the Product in acetone and diluting the solutions with water containing 0.01% by weight of a wetting agent sold under the trade name "LlSSAPOL" NX until the liquid preparations contained the required concentration of the Product. "Lissapol" is a Registered Trade Mark.
(§2) The test procedure adopted with regard to each pest was basically the same and comprised supporting a number of the pests on a medium which was usually a host plant or a foodstuff on which the pests feed, and treating either or both the pests and the medium with the preparations. The mortality of the pests was then assessed at periods usually varying from one to three days after the treatment.
(§3) The results of the tests are given in Table III for each of the Products, at the rate in parts per million given in the second column as a grading of mortality designated as A, B or C wherein A indicates 80-100% mortality, B indicates 50-79% mortality and C indicates less than 50% mortality.
(§4) In Table 111 the pest organism used is designated by a letter code and the pests species, the support medium or food, and the type and duration of test is given in Table II.

[2] = test system: Heliothis virescens (tobacco budworm - larvae); test: insecticidal mortality test, residual, cotton leaf; conditions: read-out: grading of mortality, HV
Experimental: as §1, §2, §3, §4

[3] = test system: Musca domestica (houseflies - adults); test: insecticidal mortality test, contact, cotton wool/sugar; conditions: read-out: grading of mortality, MD
Experimental: as §1, §2, §3, §4

[4] = test system: Diabrotica balteata (rootworm larvae); test: insecticidal mortality test, residual, filter paper/maize seed; conditions: read-out: grading of mortality, DB
Experimental: as §1, §2, §3, §4

[5] = test system: Blattella germanica (cockroach nymphs); test: insecticidal mortality test, residual, plastic pot; conditions: 72 h, read-out: grading of mortality, BG
Experimental: as §1, §2, §3, §4

[6] = test system: Spodoptera exigua (lesser army worm - larvae); test: insecticidal mortality test, residual, cotton leaf; conditions: read-out: grading of mortality, SP
Experimental: as §1, §2, §3, §4

[7] = test system: Blattella germanica (adult males); test: Blattella germanica knockdown test
Experimental: The test compound was dissolved in acetone (2 cm³) and the solution diluted to a concentration of 250 ppm with kerosene. 1 cm³ Of this preparation was sprayed onto 10 Blattella germanica (adult males) held in a netted plastic pot in a Burkhard potter Tower. Assessment of knockdown was performed at intervals of 5 minutes up to a total of 20 minutes. On removal from the Burkhard Potter Tower, the insects were held at 25°C and 65% relative humidity for 48 hours, and an assessment of mortality performed. Each test was repeated.
In some tests, additional knockdown assessment was performed at intervals of 1, 2, 3 and 4 minutes, and KT₅₀ and KT₉₀ values determined (the time taken, in minutes, to knockdown 50% and 90% respectively of test insects).

[8] = test system: Nephotettix cincticeps (green leaf hopper - nymphs); test: insecticidal mortality test, contact, rice plant; conditions: read-out: grading of mortality, NC
Experimental: as §1, §2, §3, §4

Myzus persicae (aphids) = test: insecticidal mortality test, contact, Chinese Cabbage leaf; conditions: 72 h, read-out: grading of mortality, MP
Experimental: as §1, §2, §3, §4

[9] = 48 h, 100 ppm, residual, cotton leaf, test duration of 2 days (footnote +)
[10] = 48 h, 100 ppm, contact, rice plant, test duration of 2 days (footnote +)
[11] = 72 h, 100 ppm, residual, cotton leaf, 3 days
[12] = 72 h, 100 ppm, contact, rice plant, 3 days

Row | SMILES | mortality at 100 ppm [1] [%] | mortality at 100 ppm ([2]; 72 h) [%] | mortality at 100 ppm ([3]; 24 h) [%] | mortality at 100 ppm ([4]; 72 h) [%] | mortality at 100 ppm [5] [%] | mortality at 100 ppm (Myzus persicae (aphids)) [%] | mortality at 100 ppm ([6]; 72 h) [%] | mortality at 100 ppm ([8]; 72 h) [%] | other results
1 | CC1(C)[C@H](C(=O)OCc2c(F)c(F)c(CBr)c(F)c2F)[C@@H]1/C=C(\Cl)C(F)(F)F (relative stereo) [Product I, 4-(Bromomethyl)-2,3,5,6-tetrafluorobenzyl (1RS,cis)-3-(Z-2-chloro-3,3,3-trifluoroprop-1-en-1-yl)-2,2-dimethyl-cyclopropanecarboxylate] | < 50 | 50 to 79 | < 50 | 80 to 100 | – | – | – | – | –
2 | CC(=O)SCc1c(F)c(F)c(COC(=O)[C@@H]2[C@H](/C=C(\Cl)C(F)(F)F)C2(C)C)c(F)c1F (racemic) [Product XXVI, 4-(acetylthiomethyl)-2,3,5,6-tetrafluorobenzyl (1RS, cis)-3-(Z-2-chloro-3,3,3-trifluoroprop-1-en-1-yl)-2,2-dimethylcyclopropanecarboxylate] | 80 to 100 | – | – | – | 80 to 100 | 80 to 100 | – | – | mortality at 100 ppm ([6]; 48 h): 80 to 100%; mortality at 100 ppm [2, 9]: 80 to 100%; mortality at 100 ppm ([3]; 72 h): 80 to 100%; % KNOCKDOWN OBSERVED 15 min ([7]; 250 ppm in kerosene, 1 cm3 sprayed onto 10 adult males, 15 min, tests 1 and 2 are repeats): 60%; % KNOCKDOWN OBSERVED 20 min ([7]; 250 ppm in kerosene, 1 cm3 sprayed onto 10 adult males, 20 min, tests 1 and 2 are repeats): 100%; mortality at 250 ppm ([7]; Blattella germanica, 48 h, 250 ppm spray, insects held at 25°C and 65% relative humidity for 48 hours, tests 1 and 2 are repeats, read-out: % MORTALITY 48 hrs): 100%; mortality at 100 ppm [8, 10]: 80 to 100%; mortality at 100 ppm ([4]; 48 h): 80 to 100%
3 | C#CCSCc1c(F)c(F)c(COC(=O)[C@@H]2[C@H](/C=C(\Cl)C(F)(F)F)C2(C)C)c(F)c1F (racemic) [Product XXV, 4-[(prop-2-yn-1-yl)thiomethyl]-2,3,5,6-tetra fluorobenzyl (1RS, cis)-3-(Z-2-chloro-3,3,3-trifluoroprop-1-en-1-yl)-2,2-dimethylcyclopropanecarboxylate] | 80 to 100 | – | – | – | 80 to 100 | 80 to 100 | – | – | mortality at 100 ppm ([6]; 48 h): 80 to 100%; mortality at 100 ppm [2, 9]: 80 to 100%; mortality at 100 ppm ([3]; 72 h): 80 to 100%; KT₅₀ ([7]; 250 ppm spray, time taken to knockdown 50% of test insects, Tetramethrin: mean of 3 assessments): 2.5 min and 3.6 min; KT₉₀ ([7]; 250 ppm spray, time taken to knockdown 90% of test insects, Tetramethrin: mean of 3 assessments): 4.5 min and 8.3 min; pest or weed control at 250 ppm ([7]; Blattella germanica, topical, 10 min, 250 ppm in kerosene, 1 cm3 sprayed onto 10 adult males, 10 min, tests 1 and 2 are repeats, Tetramethrin: mean of 27 observations, read-out: % KNOCKDOWN OBSERVED 10 min): 100%; mortality at 100 ppm [8, 10]: 80 to 100%; mortality at 100 ppm ([4]; 48 h): 80 to 100%
4 | C#CC(C)OCc1c(F)c(F)c(COC(=O)C2C(C=C(Cl)C(F)(F)F)C2(C)C)c(F)c1F (stereo not drawn) [Product XVIII, (Rs)-4-[(l-methylprop-2-yn-1-yl)oxymethyl]-2,3,5,6-tetrafluorobenzyl (1RS,cis)-3-(Z-2-chloro-3,3,3-trifluoroprop-1-en-1-yl)-2,2-dimethylcyclopropanecarboxylate] | < 50 | – | 80 to 100 | 80 to 100 | 80 to 100 | 80 to 100 | 80 to 100 | – | mortality at 100 ppm [2, 11]: 80 to 100%; mortality at 100 ppm [8, 12]: 80 to 100%
5 | COC(=O)OCc1c(F)c(F)c(COC(=O)[C@@H]2[C@H](/C=C(\Cl)C(F)(F)F)C2(C)C)c(F)c1F (relative stereo) [Product VII, 4-(Methoxycarbonyloxymethyl)-2,3,5,6-tetrafluorobenzyl (1RS,cis)-3-(Z-2-chloro-3,3,3-trifluoroprop-1-en-1-yl)-2,2-dimethylcyclopropanecarboxylate] | 80 to 100 | 80 to 100 | < 50 | 80 to 100 | 80 to 100 | 80 to 100 | 80 to 100 | 80 to 100 | –
6 | C#CCOCc1c(F)c(F)c(COC(=O)[C@@H]2[C@H](/C=C(\Cl)C(F)(F)F)C2(C)C)c(F)c1F (relative stereo) [Product XX, 4-[(Prop-2-yn-1-yl)oxymethyl]-2,3,5,6-tetrafluorobenzyl (1RS,cis)-3-(Z-2-chloro-3,3,3-trifluoroprop-1-en-1-yl)-2,2-dimethylcyclopropanecarboxylate] | 80 to 100 | 80 to 100 | 80 to 100 | 80 to 100 | 80 to 100 | 80 to 100 | 80 to 100 | 80 to 100 | –
7 | CC1(C)[C@H](C(=O)OCc2c(F)c(F)c(COC(=O)C(F)(F)F)c(F)c2F)[C@@H]1/C=C(\Cl)C(F)(F)F (relative stereo) [Product V, 4-(trifluoroacetoxymethyl)-2,3,5,6-tetrafluorobenzyl (1RS,cis)-3-(Z-2-chloro-3,3,3-trifluoroprop-1-en-1-yl)-2,2-dimethylcyclopropanecarboxylate] | 80 to 100 | 80 to 100 | 80 to 100 | 80 to 100 | 80 to 100 | 80 to 100 | 80 to 100 | 80 to 100 | –
8 | CC#CCOCc1c(F)c(F)c(COC(=O)[C@@H]2[C@H](/C=C(\Cl)C(F)(F)F)C2(C)C)c(F)c1F (relative stereo) [Product XIX, 4-[(But-2-yn-1-yl)oxymethyl]-2,3,5,6-tetrafluorobenzyl (1RS,cis)-3-(Z-2-chloro-3,3,3-trifluoroprop-1-en-1-yl)-2,2-dimethylcyclopropanecarboxylate] | 50 to 79 | 80 to 100 | 50 to 79 | 80 to 100 | 80 to 100 | 80 to 100 | 80 to 100 | 80 to 100 | –
9 | CC1(C)C(C=C(Cl)C(F)(F)F)C1C(=O)OCc1c(F)c(F)c(COC=O)c(F)c1F (racemic) [Product VIII, 4-(Formyloxymethyl)-2,3,5,6-tetrafluoromethyl (1RS, cis)-3-(Z-2-chloro-3,3,3-trifluoroprop-1-en-1-yl)-2,2-dimethylcyclopropanecarboxylate] | – | – | 80 to 100 | 80 to 100 | – | – | 80 to 100 | – | grading of mortality, Tua ([1]; 100 ppm, 3 days, listed as VIII, 4320 min): A (A indicates 80-100% mortality); mortality at 100 ppm [2, 11]: 80 to 100%; mortality at 100 ppm [8, 12]: 80 to 100%
10 | CC1(C)[C@H](C(=O)OCc2c(F)c(F)c(COS(C)(=O)=O)c(F)c2F)[C@@H]1/C=C(\Cl)C(F)(F)F (relative stereo) [Product IV, 4-(methanesulphonyloxymethyl)-2,3,5,6-tetrafluorobenzyl (1RS,cis)-3-(Z-2-chloro-3,3,3-trifluoroprop-1-en-1-yl)-2,2-dimethylcyclopropanecarboxylate] | 80 to 100 | 80 to 100 | < 50 | < 50 | 80 to 100 | 80 to 100 | 80 to 100 | 80 to 100 | –
